US20220169628A1 (University of Florida Research Foundation, Incorporated, priority 2019, published 2022)
pIC50: −log10 of the molar value. Where two headings read alike, the source gives them in different places.

Columns and labels:
MOLT-4 cells = assay: Cell viability assay, MTS, 48 h, MOLT-4; type: cell-based; details: 48 hours, read-out: IC50 (48 hours) MOLT-4
Method: (§1) Acute lymphoblastic leukemia cells (MOLT-4 and RS4; 11) or small cell lung cancer (NCI-H146 or simply H146) were incubated with increasing concentrations of Bcl-xL degraders for 48 h. Cell viability was measured by tetrazolium-based MTS assay.

RS4;11 cells = assay: Cell viability assay, MTS, 48 h, RS4;11; type: cell-based; details: 48 hours, read-out: IC50 (48 hours) RS4;11
Method: as §1

| SMILES | pIC50 (MOLT-4 cells; Homo sapiens, MOLT-4, 48 h) | pIC50 (RS4;11 cells; Homo sapiens, RS4-11, 48 h) | pIC50 (MOLT-4 cells) | pIC50 (RS4;11 cells) |
| --- | --- | --- | --- | --- |
| Cc1ncsc1-c1ccc([C@H](C)NC(=O)[C@@H]2C[C@@H](O)CN2C(=O)[C@@H](NC(=O)CCCCCN2CCN(CC3(C)CCC(c4ccc(Cl)cc4)=C(CN4CCN(c5ccc(C(=O)NS(=O)(=O)c6ccc(N[C@H](CCN7CCOCC7)CSc7ccccc7)c(S(=O)(=O)C(F)(F)F)c6)cc5)CC4)C3)CC2)C(C)(C)C)cc1 (stereo partly drawn) [compound 69, (2S,4R)-1-((2S)-2-(6-(4-((4′-chloro-4-methyl-6-((4-(4-(((4-(((R)-4-morpholino-1-(phenylthio)butan-2-yl)amino)-3-((trifluoromethyl)sulfonyl)phenyl)sulfonyl)carbamoyl)phenyl)piperazin-1-yl)methyl)-2,3,4,5-tetrahydro-[1,1′-biphenyl]-4-yl)methyl)piperazin-1-yl)hexanamido)-3,3-dimethylbutanoyl)-4-hydroxy-N—((S)-1-(4-(4-methylthiazol-5-yl)phenyl)ethyl)pyrrolidine-2-carboxamide] | – | – | 6.82 to 7.30 | 6.82 to 7.30 |
| Cc1ncsc1-c1ccc([C@H](C)NC(=O)[C@@H]2C[C@@H](O)CN2C(=O)[C@@H](NC(=O)CCCCCC(=O)N2CCN(C(=O)C3(C)CCC(c4ccc(Cl)cc4)=C(CN4CCN(c5ccc(C(=O)NS(=O)(=O)c6ccc(N[C@H](CCN7CCOCC7)CSc7ccccc7)c(S(=O)(=O)C(F)(F)F)c6)cc5)CC4)C3)CC2)C(C)(C)C)cc1 (stereo partly drawn) [compound 64, (2S,4R)-1-((2S)-2-(7-(4-(4′-chloro-4-methyl-6-((4-(4-(((4-(((R)-4-morpholino-1-(phenylthio)butan-2-yl)amino)-3-((trifluoromethyl)sulfonyl)phenyl)sulfonyl)carbamoyl)phenyl)piperazin-1-yl)methyl)-2,3,4,5-tetrahydro-[1,1′-biphenyl]-4-carbonyl)piperazin-1-yl)-7-oxoheptanamido)-3,3-dimethylbutanoyl)-4-hydroxy-N—((S)-1-(4-(4-methylthiazol-5-yl)phenyl)ethyl)pyrrolidine-2-carboxamide] | 6.82 to 7.30 | 6.82 to 7.30 | – | – |
| Cc1ncsc1-c1ccc([C@H](C)NC(=O)[C@@H]2C[C@@H](O)CN2C(=O)[C@@H](NC(=O)C[C@H]2CC[C@H](CC(=O)N3CCC4(CCN(CC5(C)CCC(c6ccc(Cl)cc6)=C(CN6CCN(c7ccc(C(=O)NS(=O)(=O)c8ccc(N[C@H](CCN9CCOCC9)CSc9ccccc9)c(S(=O)(=O)C(F)(F)F)c8)cc7)CC6)C5)CC4)CC3)CC2)C(C)(C)C)cc1 (relative stereo) [degrader #39] | – | – | 6.82 to 7.30 | > 7.30 |
| Cc1ncsc1-c1ccc([C@H](C)NC(=O)[C@@H]2C[C@@H](O)CN2C(=O)[C@@H](NC(=O)COCCOCCOCCOCC(=O)NCC2(C)CCC(c3ccc(Cl)cc3)=C(CN3CCN(c4ccc(C(=O)NS(=O)(=O)c5ccc(N[C@H](CCN6CCOCC6)CSc6ccccc6)c(S(=O)(=O)C(F)(F)F)c5)cc4)CC3)C2)C(C)(C)C)cc1 (stereo partly drawn) [degrader #9, N1-((4′-chloro-4-methyl-6-((4-(4-(((4-(((R)-4-morpholino-1-(phenylthio)butan-2-yl)amino)-3-((trifluoromethyl)sulfonyl)phenyl)sulfonyl)carbamoyl)phenyl)piperazin-1-yl)methyl)-2,3,4,5-tetrahydro-[1,1′-biphenyl]-4-yl)methyl)-N14-((S)-1-((2S,4R)-4-hydroxy-2-(((S)-1-(4-(4-methylthiazol-5-yl)phenyl)ethyl)carbamoyl)pyrrolidin-1-yl)-3,3-dimethyl-1-oxobutan-2-yl)-3,6,9,12-tetraoxatetradecanediamide] | < 6.30 | 6.30 to 6.82 | – | – |
| Cc1ncsc1-c1ccc([C@H](C)NC(=O)[C@@H]2C[C@@H](O)CN2C(=O)[C@@H](NC(=O)COCCOCCOCCOCCOCC(=O)NCC2(C)CCC(c3ccc(Cl)cc3)=C(CN3CCN(c4ccc(C(=O)NS(=O)(=O)c5ccc(N[C@H](CCN6CCOCC6)CSc6ccccc6)c(S(=O)(=O)C(F)(F)F)c5)cc4)CC3)C2)C(C)(C)C)cc1 (stereo partly drawn) [degrader #10, N1-((4′-chloro-4-methyl-6-((4-(4-(((4-(((R)-4-morpholino-1-(phenylthio)butan-2-yl)amino)-3-((trifluoromethyl)sulfonyl)phenyl)sulfonyl)carbamoyl)phenyl)piperazin-1-yl)methyl)-2,3,4,5-tetrahydro-[1,1′-biphenyl]-4-yl)methyl)-N17-((S)-1-((2S,4R)-4-hydroxy-2-(((S)-1-(4-(4-methylthiazol-5-yl)phenyl)ethyl)carbamoyl)pyrrolidin-1-yl)-3,3-dimethyl-1-oxobutan-2-yl)-3,6,9,12,15-pentaoxaheptadecanediamide] | < 6.30 | < 6.30 | – | – |
| Cc1ncsc1-c1ccc([C@H](C)NC(=O)[C@@H]2C[C@@H](O)CN2C(=O)[C@@H](NC(=O)CCCC(=O)N2CCN(CC3(C)CCC(c4ccc(Cl)cc4)=C(CN4CCN(c5ccc(C(=O)NS(=O)(=O)c6ccc(N[C@H](CCN7CCOCC7)CSc7ccccc7)c(S(=O)(=O)C(F)(F)F)c6)cc5)CC4)C3)CC2)C(C)(C)C)cc1 (stereo partly drawn) [degrader #14, (2S,4R)-1-((2S)-2-(5-(4-((4′-chloro-4-methyl-6-((4-(4-(((4-(((R)-4-morpholino-1-(phenylthio)butan-2-yl)amino)-3-((trifluoromethyl)sulfonyl)phenyl)sulfonyl)carbamoyl)phenyl)piperazin-1-yl)methyl)-2,3,4,5-tetrahydro-[1,1′-biphenyl]-4-yl)methyl)piperazin-1-yl)-5-oxopentanamido)-3,3-dimethylbutanoyl)-4-hydroxy-N—((S)-1-(4-(4-methylthiazol-5-yl)phenyl)ethyl)pyrrolidine-2-carboxamide] | 6.30 to 6.82 | 6.82 to 7.30 | – | – |

Further lines, with some results ahead:

| pIC50 (MOLT-4 cells; Homo sapiens, MOLT-4, 48 h) | pIC50 (RS4;11 cells; Homo sapiens, RS4-11, 48 h) | SMILES | pIC50 (MOLT-4 cells) | pIC50 (RS4;11 cells) |
| --- | --- | --- | --- | --- |
| > 7.30 | > 7.30 | Cc1ncsc1-c1ccc([C@H](C)NC(=O)[C@@H]2C[C@@H](O)CN2C(=O)[C@@H](NC(=O)CCCCCC(=O)N2CCN(CCN(C)CC3(C)CCC(c4ccc(Cl)cc4)=C(CN4CCN(c5ccc(C(=O)NS(=O)(=O)c6ccc(N[C@H](CCN7CCOCC7)CSc7ccccc7)c(S(=O)(=O)C(F)(F)F)c6)cc5)CC4)C3)CC2)C(C)(C)C)cc1 (stereo partly drawn) [compound 59] | – | – |
| 6.30 to 6.82 | < 6.30 | Cc1ncsc1-c1ccc([C@@H](C)NC(=O)[C@@H]2C[C@@H](O)CN2C(=O)[C@@H](NC(=O)CCCCCCCCCN2CCC(c3ccc(Cl)cc3)=C(CN3CCN(c4ccc(C(=O)NS(=O)(=O)c5ccc(N[C@H](CCN6CCOCC6)CSc6ccccc6)c(S(=O)(=O)C(F)(F)F)c5)cc4)CC3)C2)C(C)(C)C)cc1 [compound 88, (2S,4R)-1-((S)-2-(10-(4-(4-chlorophenyl)-5-((4-(4-(((4-(((R)-4-morpholino-1-(phenylthio)butan-2-yl)amino)-3-((trifluoromethyl)sulfonyl)phenyl)sulfonyl)carbamoyl)phenyl)piperazin-1-yl)methyl)-3,6-dihydropyridin-1(2H)-yl)decanamido)-3,3-dimethylbutanoyl)-4-hydroxy-N—((R)-1-(4-(4-methylthiazol-5-yl)phenyl)ethyl)pyrrolidine-2-carboxamide] | – | – |
| 6.82 to 7.30 | 6.82 to 7.30 | Cc1ncsc1-c1ccc([C@H](C)NC(=O)[C@@H]2C[C@@H](O)CN2C(=O)[C@@H](NC(=O)CCCCCCCN2CCN(CC3(C)CCC(c4ccc(Cl)cc4)=C(CN4CCN(c5ccc(C(=O)NS(=O)(=O)c6ccc(N[C@H](CCN7CCOCC7)CSc7ccccc7)c(S(=O)(=O)C(F)(F)F)c6)cc5)CC4)C3)CC2)C(C)(C)C)cc1 (stereo partly drawn) [Compound 53] | – | – |
| > 7.30 | > 7.30 | Cc1ncsc1-c1ccc([C@H](C)NC(=O)[C@@H]2C[C@@H](O)CN2C(=O)[C@@H](NC(=O)CCCCCCC(=O)N2CCN(C[C@]3(C)CCC(c4ccc(Cl)cc4)=C(CN4CCN(c5ccc(C(=O)NS(=O)(=O)c6ccc(N[C@H](CCN7CCOCC7)CSc7ccccc7)c(S(=O)(=O)C(F)(F)F)c6)cc5)CC4)C3)CC2)C(C)(C)C)cc1 [degrader #44, (2S,4R)-1-((S)-2-(8-(4-(((R)-4′-chloro-4-methyl-6-((4-(4-(((4-(((R)-4-morpholino-1-(phenylthio)butan-2-yl)amino)-3-((trifluoromethyl)sulfonyl)phenyl)sulfonyl)carbamoyl)phenyl)piperazin-1-yl)methyl)-2,3,4,5-tetrahydro-[1,1′-biphenyl]-4-yl)methyl)piperazin-1-yl)-8-oxooctanamido)-3,3-dimethylbutanoyl)-4-hydroxy-N—((S)-1-(4-(4-methylthiazol-5-yl)phenyl)ethyl)pyrrolidine-2-carboxamide] | – | – |
| 6.30 to 6.82 | > 7.30 | Cc1ncsc1-c1ccc([C@H](C)NC(=O)[C@@H]2C[C@@H](O)CN2C(=O)[C@@H](NC(=O)CCCCCC(=O)NC2CCN(CC3(C)CCC(c4ccc(Cl)cc4)=C(CN4CCN(c5ccc(C(=O)NS(=O)(=O)c6ccc(N[C@H](CCN7CCOCC7)CSc7ccccc7)c(S(=O)(=O)C(F)(F)F)c6)cc5)CC4)C3)CC2)C(C)(C)C)cc1 (stereo partly drawn) [degrader #37, N1-(1-((4′-chloro-4-methyl-6-((4-(4-(((4-(((R)-4-morpholino-1-(phenylthio)butan-2-yl)amino)-3-((trifluoromethyl)sulfonyl)phenyl)sulfonyl)carbamoyl)phenyl)piperazin-1-yl)methyl)-2,3,4,5-tetrahydro-[1,1′-biphenyl]-4-yl)methyl)piperidin-4-yl)-N7-((S)-1-((2S,4R)-4-hydroxy-2-(((S)-1-(4-(4-methylthiazol-5-yl)phenyl)ethyl)carbamoyl)pyrrolidin-1-yl)-3,3-dimethyl-1-oxobutan-2-yl)heptanediamide] | – | – |
| 6.30 to 6.82 | 6.30 to 6.82 | Cc1ncsc1-c1ccc([C@H](C)NC(=O)[C@@H]2C[C@@H](O)CN2C(=O)[C@@H](NC(=O)CCCCCC(=O)NCCN(C)CC2(C)CCC(c3ccc(Cl)cc3)=C(CN3CCN(c4ccc(C(=O)NS(=O)(=O)c5ccc(N[C@H](CCN6CCOCC6)CSc6ccccc6)c(S(=O)(=O)C(F)(F)F)c5)cc4)CC3)C2)C(C)(C)C)cc1 (stereo partly drawn) [compound 60] | – | – |
